In patent US10526291B2, “Potent dual BRD4-kinase inhibitors as cancer therapeutics” (H. Lee Moffitt Cancer Center and Research Institute, Inc., priority 2014, dated 2020):
Several values for one entry are separate records, joined by “and”; a condition that tells them apart may be missing. Identical values can stand only once.

Key:
MM.1S cells = experiment: MM.1S cell survival, MTT assay; format: cell-based; settings: Homo sapiens, MM1.S, 72 h, 72 hours compound exposure
BRD4 [1] = molecular target: T1, BRD4 (Homo sapiens, UniProt O60885); experiment: Differential Scanning Fluorimetry (DSF), stability of BRD4 upon ligand binding; settings: for ΔTm at 4 µM: 100 μM protein, 4 μM compound and 2% DMSO; for IC50: estimated
Method: DSF=Differential Scanning Fluorimetry; provides a measure of the increased stability of BRD4 upon ligand binding The DSF experiment was run at 100 μM protein, 4 μM compound and 2% DMSO.

JAK3 = molecular target: T2, JAK3 (Homo sapiens, UniProt P52333); experiment: JAK3 IC50 (RB, commercial kinase panel); format: biochemical
T2 construct: purchased
T2 sequence (P52333 1-1124): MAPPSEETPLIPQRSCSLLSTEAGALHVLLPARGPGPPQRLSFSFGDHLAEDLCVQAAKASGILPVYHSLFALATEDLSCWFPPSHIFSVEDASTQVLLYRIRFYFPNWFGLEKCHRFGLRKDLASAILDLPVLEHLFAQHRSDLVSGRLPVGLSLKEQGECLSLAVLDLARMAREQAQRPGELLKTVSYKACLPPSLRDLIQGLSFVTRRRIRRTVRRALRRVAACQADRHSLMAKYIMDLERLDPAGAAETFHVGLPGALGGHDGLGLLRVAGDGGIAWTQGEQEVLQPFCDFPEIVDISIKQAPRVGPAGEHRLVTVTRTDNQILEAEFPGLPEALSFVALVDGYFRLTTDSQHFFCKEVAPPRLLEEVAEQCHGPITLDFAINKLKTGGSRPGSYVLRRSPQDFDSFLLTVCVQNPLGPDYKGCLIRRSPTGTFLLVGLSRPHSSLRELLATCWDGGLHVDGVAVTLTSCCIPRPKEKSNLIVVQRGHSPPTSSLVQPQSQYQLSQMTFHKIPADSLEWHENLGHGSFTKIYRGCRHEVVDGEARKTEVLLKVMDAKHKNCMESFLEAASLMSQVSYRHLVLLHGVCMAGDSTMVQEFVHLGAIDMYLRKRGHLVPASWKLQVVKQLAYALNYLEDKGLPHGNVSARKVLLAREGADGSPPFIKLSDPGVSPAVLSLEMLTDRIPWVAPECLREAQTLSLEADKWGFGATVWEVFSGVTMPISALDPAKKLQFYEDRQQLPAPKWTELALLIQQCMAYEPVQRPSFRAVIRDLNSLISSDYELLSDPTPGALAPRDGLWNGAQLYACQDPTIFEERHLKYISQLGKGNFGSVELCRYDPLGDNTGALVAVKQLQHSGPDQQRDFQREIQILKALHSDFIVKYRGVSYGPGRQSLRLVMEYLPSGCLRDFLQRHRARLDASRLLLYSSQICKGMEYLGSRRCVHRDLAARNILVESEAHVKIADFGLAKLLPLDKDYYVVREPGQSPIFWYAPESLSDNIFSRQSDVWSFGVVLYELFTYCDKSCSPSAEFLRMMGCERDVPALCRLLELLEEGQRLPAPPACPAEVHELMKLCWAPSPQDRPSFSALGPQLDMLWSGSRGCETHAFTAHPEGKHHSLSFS

BRD3 = molecular target: T3, BRD3 (Homo sapiens, UniProt Q15059); experiment: BRD3 IC50 (RB, commercial BRD panel); format: binding
T3 construct: purchased

JAK1 = molecular target: T4, JAK1 (Homo sapiens, UniProt P23458); experiment: JAK1 IC50 (RB, commercial kinase panel); format: biochemical
T4 construct: purchased

BRDT = molecular target: T5, BRDT (Homo sapiens, UniProt Q58F21); experiment: BRDT IC50 (RB, commercial BRD panel); format: binding
T5 construct: purchased

BRD2 = molecular target: T6, BRD2 (Homo sapiens, UniProt P25440); experiment: BRD2 IC50 (RB, commercial BRD panel); format: binding
T6 construct: purchased

HEK293 = HEK293 cell IC50; format: cell-based; settings: Homo sapiens
JAK2 = molecular target: T7, JAK2 (Homo sapiens, UniProt O60674); experiment: JAK2 IC50 (RB, commercial kinase panel); format: biochemical
T7 construct: purchased

BRD4 [2] = molecular target: T1, BRD4; experiment: BRD4 IC50 (RB, commercial BRD panel); format: binding
FLT3 = molecular target: T8, FLT3 (Homo sapiens, UniProt P36888); experiment: FLT3 IC50 (RB, commercial kinase panel); format: biochemical
T8 construct: purchased
T8 sequence (P36888 27-993): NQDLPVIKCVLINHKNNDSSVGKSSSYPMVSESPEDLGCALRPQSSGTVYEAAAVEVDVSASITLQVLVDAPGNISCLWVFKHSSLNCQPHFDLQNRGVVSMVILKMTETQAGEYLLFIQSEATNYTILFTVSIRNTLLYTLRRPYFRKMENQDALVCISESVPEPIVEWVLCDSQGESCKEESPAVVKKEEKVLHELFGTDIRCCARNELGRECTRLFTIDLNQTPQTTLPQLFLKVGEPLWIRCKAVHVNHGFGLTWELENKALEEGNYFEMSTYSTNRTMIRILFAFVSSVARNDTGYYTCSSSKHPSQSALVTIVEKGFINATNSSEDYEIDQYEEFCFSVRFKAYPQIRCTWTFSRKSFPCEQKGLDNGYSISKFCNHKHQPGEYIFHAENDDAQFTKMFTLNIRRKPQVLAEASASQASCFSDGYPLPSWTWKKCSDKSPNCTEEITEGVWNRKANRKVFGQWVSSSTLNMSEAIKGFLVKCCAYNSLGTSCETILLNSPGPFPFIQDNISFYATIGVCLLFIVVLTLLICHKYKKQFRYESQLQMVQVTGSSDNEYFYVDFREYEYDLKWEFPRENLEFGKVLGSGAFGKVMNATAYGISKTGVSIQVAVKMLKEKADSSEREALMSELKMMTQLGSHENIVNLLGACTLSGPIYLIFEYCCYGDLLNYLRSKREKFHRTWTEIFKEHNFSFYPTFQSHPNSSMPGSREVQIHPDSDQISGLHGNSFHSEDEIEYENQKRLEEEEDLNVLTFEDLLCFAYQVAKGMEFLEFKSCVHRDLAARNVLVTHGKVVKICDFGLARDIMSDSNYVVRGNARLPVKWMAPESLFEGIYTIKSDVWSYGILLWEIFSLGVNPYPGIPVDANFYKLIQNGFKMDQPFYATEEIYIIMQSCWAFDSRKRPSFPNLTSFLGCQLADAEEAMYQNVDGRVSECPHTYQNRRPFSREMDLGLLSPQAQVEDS

SAOS-2 = SAOS-2 cell IC50; format: cell-based; settings: Homo sapiens
UKE-1 = UKE-1 cell IC50; format: cell-based; settings: UKE1
NCI-H2052 = NCI-H2052 cell IC50; format: cell-based; settings: Homo sapiens
BRDT-1 = molecular target: T9, BRDT-1 (Homo sapiens, UniProt Q58F21); experiment: BRDT-1 IC50; format: binding
T9 construct: BRDT-1; purchased

BRD4-2 = molecular target: T10, BRD4-2 (Homo sapiens, UniProt O60885); experiment: BRD4-2 IC50; format: binding
T10 construct: BRD4-2; purchased

BRD4-1 = molecular target: T11, BRD4-1 (Homo sapiens, UniProt O60885); experiment: BRD4-1 IC50; format: binding
T11 construct: BRD4-1; purchased

MV4-11 AML cells = experiment: MV-4-11 cell IC50 (antiproliferative activity); format: cell-based; settings: Homo sapiens
Method: Cellular activity of promising compounds is assessed using MM.1S and MV4-11 AML cells using c-Myc levels as biomarker (6-12 hr treatment) and antiproliferative activity (48-72 hr treatment) as described (Ciceri et al., Dual kinase-bromodomain inhibitors for rationally designed polypharmacology. Nat Chem Biol 2014).

T7 sequence (O60674 whole entry): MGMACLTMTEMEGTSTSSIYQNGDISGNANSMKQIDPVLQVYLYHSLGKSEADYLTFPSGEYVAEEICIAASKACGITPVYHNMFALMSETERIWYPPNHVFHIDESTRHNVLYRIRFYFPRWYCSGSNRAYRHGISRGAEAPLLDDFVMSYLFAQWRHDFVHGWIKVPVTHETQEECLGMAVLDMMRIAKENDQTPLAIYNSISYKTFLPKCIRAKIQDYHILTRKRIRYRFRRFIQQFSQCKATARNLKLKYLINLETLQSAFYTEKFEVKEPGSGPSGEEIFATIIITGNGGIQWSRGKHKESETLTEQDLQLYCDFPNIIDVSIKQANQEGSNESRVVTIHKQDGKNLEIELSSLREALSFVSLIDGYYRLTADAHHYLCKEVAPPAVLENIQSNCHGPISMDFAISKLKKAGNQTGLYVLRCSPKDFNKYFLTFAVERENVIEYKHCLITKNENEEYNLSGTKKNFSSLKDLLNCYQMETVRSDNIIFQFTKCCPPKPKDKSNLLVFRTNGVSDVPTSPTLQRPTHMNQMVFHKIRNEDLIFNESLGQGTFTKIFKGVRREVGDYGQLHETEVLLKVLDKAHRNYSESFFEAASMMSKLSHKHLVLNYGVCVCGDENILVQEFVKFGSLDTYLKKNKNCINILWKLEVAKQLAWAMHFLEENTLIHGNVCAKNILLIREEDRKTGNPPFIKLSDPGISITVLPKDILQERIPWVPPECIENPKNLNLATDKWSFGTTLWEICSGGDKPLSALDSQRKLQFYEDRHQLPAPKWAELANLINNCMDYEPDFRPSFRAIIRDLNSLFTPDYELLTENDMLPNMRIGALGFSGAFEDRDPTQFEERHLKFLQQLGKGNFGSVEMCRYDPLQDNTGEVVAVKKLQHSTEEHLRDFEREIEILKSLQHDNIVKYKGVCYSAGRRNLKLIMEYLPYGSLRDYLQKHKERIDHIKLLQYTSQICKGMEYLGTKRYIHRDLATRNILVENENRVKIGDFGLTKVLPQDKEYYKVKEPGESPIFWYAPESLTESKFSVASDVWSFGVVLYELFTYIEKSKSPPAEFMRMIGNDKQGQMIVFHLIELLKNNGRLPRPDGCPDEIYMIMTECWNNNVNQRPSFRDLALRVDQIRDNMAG
T6 sequence (P25440 whole entry): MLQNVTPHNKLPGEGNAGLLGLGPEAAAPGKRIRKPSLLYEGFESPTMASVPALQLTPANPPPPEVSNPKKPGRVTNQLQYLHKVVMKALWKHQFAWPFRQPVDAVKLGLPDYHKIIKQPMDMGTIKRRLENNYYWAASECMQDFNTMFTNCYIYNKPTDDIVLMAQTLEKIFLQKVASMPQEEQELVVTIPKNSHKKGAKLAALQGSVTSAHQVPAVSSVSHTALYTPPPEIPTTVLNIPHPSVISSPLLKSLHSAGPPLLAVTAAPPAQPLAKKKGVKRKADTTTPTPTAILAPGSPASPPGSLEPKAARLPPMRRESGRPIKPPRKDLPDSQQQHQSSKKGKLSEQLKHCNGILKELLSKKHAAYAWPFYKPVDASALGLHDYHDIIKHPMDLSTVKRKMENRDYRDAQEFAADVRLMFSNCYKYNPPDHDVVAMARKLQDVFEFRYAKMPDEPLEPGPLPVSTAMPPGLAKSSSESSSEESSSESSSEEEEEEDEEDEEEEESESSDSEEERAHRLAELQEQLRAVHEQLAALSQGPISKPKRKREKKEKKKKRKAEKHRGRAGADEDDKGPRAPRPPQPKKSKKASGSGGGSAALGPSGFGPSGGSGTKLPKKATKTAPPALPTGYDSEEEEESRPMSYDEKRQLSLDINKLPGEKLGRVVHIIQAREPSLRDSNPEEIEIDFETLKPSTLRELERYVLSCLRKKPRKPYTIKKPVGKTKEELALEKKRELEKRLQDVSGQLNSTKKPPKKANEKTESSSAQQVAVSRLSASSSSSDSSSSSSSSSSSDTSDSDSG
T3 sequence (Q15059 whole entry): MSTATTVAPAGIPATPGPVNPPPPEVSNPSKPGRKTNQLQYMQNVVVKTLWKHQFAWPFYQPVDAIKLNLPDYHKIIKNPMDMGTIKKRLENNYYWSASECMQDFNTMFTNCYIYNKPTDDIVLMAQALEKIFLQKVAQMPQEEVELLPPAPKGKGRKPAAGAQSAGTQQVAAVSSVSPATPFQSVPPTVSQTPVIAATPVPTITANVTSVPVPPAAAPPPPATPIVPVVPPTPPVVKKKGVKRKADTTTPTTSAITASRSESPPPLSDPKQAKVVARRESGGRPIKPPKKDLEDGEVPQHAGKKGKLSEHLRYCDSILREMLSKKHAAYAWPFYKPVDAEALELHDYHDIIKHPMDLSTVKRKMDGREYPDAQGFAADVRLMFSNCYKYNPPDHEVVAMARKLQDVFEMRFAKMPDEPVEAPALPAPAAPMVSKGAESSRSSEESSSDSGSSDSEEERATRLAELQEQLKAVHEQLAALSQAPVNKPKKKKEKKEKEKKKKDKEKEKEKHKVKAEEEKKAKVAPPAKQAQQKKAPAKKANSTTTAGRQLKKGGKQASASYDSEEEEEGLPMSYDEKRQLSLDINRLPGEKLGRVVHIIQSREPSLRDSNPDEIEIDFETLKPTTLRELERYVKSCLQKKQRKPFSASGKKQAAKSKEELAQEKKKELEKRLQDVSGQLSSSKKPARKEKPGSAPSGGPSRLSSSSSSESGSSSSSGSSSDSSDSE
T4 sequence (P23458 whole entry): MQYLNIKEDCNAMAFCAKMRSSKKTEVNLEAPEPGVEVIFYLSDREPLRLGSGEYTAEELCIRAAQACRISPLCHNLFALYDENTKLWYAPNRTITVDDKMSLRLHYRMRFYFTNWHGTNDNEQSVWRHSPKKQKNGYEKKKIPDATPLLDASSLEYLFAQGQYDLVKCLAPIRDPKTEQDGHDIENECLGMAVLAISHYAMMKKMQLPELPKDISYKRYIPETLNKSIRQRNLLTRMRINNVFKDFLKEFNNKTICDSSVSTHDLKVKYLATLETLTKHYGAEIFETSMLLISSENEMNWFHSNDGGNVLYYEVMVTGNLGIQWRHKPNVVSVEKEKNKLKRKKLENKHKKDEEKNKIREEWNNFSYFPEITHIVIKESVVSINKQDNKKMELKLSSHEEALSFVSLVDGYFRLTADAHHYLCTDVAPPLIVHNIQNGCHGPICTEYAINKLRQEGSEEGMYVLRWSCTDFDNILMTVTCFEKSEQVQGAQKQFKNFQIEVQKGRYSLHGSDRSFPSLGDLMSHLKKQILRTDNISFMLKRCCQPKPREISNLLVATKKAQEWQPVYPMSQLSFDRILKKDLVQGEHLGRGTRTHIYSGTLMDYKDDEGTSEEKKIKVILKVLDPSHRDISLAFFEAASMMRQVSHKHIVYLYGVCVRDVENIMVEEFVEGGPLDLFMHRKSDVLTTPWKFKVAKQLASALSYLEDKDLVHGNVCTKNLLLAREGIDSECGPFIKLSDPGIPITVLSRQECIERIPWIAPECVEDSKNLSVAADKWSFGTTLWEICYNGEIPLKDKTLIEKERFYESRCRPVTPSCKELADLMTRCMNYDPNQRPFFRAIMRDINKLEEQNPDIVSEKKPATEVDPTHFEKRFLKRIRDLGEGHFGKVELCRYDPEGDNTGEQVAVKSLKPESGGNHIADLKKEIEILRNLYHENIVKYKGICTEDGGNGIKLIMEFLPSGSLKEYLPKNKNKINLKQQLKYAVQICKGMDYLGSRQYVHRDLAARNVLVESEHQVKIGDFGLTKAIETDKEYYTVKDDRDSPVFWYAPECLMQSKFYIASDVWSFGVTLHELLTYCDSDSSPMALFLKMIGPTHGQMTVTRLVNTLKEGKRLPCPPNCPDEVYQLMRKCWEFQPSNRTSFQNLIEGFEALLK

ΔTm at 4 µM (BRD4 [1])	IC50 (BRD4 [1])	IC50 (JAK3)	IC50 (BRD3)	IC50 (JAK1)	IC50 (BRDT)	IC50 (BRD2)	IC50 (JAK2)	IC50 (BRD4 [2]; read-out: BRD4 IC50)	IC50 (BRD4 [2]; read-out: BRD4 IC50 (RB))	IC50 (FLT3)	IC50 (SAOS-2)	IC50 (UKE-1)	IC50 (NCI-H2052)	IC50 (BRDT-1)	IC50 (BRD4-2)	IC50 (BRD4-1)	IC50 (MV4-11 AML cells)	SMILES	IC50 (MM.1S cells)	IC50 (HEK293)
5.6 ± 0.082 °C	290 nM	9.06 nM	1140 nM	1.83 nM	1400 nM	2800 nM	0.69 nM	617 nM	617 nM									COc1cc(Nc2nc(Nc3ccc(N4CCN(C)CC4)cc3)ncc2C)ccc1Cl	420 nM	380 nM
8.54 ± 0.088 °C	25 nM	91.4 nM	12.5 nM	4.58 nM	29.1 nM	625 nM		10.2 nM		0.917 nM	184 nM	260 nM						Cc1cnc(Nc2ccc(N3CCN(C)CC3)cc2)nc1Nc1cccc(NS(=O)(=O)C(C)(C)C)c1	400 nM	1200 nM
9.5 ± 0.14 °C	14 nM and 3.9 nM						1.14 nM			1.1 nM	133 nM	200 nM	1400 nM	41.3 nM	22 nM	24.3 nM	26.8 nM	Cc1cnc(Nc2ccc(N3CCN(C)CC3)c(F)c2)nc1Nc1cccc(NS(=O)(=O)C(C)(C)C)c1	160 nM	
11 ± 0.04 °C	4.8 nM and 1.3 nM									10.7 nM	320 nM	294 nM	2500 nM	19 nM	17.5 nM	11.2 nM	53.2 nM	Cc1cnc(Nc2ccc(N3CCN(C)CC3)c(F)c2)nc1Nc1ccc(Cl)c(NS(=O)(=O)C(C)(C)C)c1	59 nM	
